The source of these data is ChEMBL document CHEMBL1140922, “Detection of metabolite changes in C6 glioma cells cultured with antimitotic oleyl glycoside by 1H MAS NMR” (2009).

Assay [1] has as its system C6. The experiment in a line: Induction of apoptosis in rat C6 cells assessed as DNA fragmentation at 80 uM after 19 hrs by electrophoresis. The class given is functional, cell-based.
The test system of assay [2] is C6. The experiment in a line: Induction of apoptosis in rat C6 cells assessed as DNA fragmentation at 40 uM after 19 hrs by electrophoresis. It counts as functional, cell-based.
The subject of assay [3] is C6. The experiment in a line: Induction of apoptosis in rat C6 cells assessed cell death at > 40 uM. The class given is functional, cell-based.
Assay [4] deals with C6. The experiment in a line: Effect on metabolic changes in rat C6 cells assessed as ratio of CoA to creatine at 10 uM after 24 hrs by NMR analysis. It counts as functional.
The test system of assay [5] is C6. The experiment in a line: Induction of apoptosis in rat C6 cells assessed inhibition of cell division. It counts as functional, cell-based.
The test system of assay [6] is C6. As to the kind of experiment: Cytotoxicity against rat C6 cells assessed as necrotic cells at 80 uM after 19 hrs. The class given is functional, cell-based.
Assay [7] deals with C6. The experiment in a line: Effect on metabolic changes in rat C6 cells assessed as increase in choline signal at 10 uM after 48 hrs by NMR analysis. It counts as functional.

SMILES strings stand for the structures. Active and inactive are the calls of the source. The rule behind the calls is not given here.

Take `CCCCCCCC/C=C\CCCCCCCCO[C@H]1O[C@H](CO)[C@@H](O)[C@H](O)[C@H]1NC(C)=O`: the outcome in the assay on C6 [1], with C6 [2], with C6 [3] and in the assay with C6 [5] was Active. The Ratio with C6 [4] was 0.32. Moreover, in the assay on C6 [6], the result was inactive. The Activity with C6 [7] was 2.47.
